Experimental data as given in US10821115B2, “Compounds that inhibit Mcl-1 protein” (priority 2017, dated 2020).
Read-outs that look alike come from different tables or passages of the source.

Columns and labels:
[1] = molecular target: recombinant human Mcl-1 (residues 171-327) / Bim interaction (Homo sapiens (Human), UniProt Q07820); assay: biochemical; format: binding; conditions: TR-FRET, Mcl-1(171-327) / biotin-Bim (51-76); read-out: Mcl-1 HTRF IC50
[2] = tested on: human multiple myeloma cell line, OPM-2; assay: Cell viability assay (OPM-2 10 FBS), CellTiter-Glo; format: cell-based
Outline: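 OPM-2 cells at 3000 cells/well in RPMI 1640 with 10% FBS were exposed to serially diluted compounds for 16 h at 37 °C, 5% CO2.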

[3] = read-out: OPM-2 10% FBS IC50 IP, OPM-2 cells, 10% FBS, 16 h, CellTiter-Glo
[4] = Homo sapiens, OPM-2, 16 h, read-out: OPM-2 10% FBS IC50 IP, OPM-2 cells, 10% FBS, 16 h, CellTiter-Glo

recombinant human Mcl-1 (residues 171-327) / Bim interaction, sequence (Q07820 171-327): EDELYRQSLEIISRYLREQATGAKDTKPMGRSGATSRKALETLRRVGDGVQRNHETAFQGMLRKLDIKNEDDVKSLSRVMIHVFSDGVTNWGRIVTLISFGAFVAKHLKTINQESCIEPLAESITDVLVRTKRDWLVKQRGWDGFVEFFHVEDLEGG

C[C@@H]1[C@@H](C)C/C=C/[C@@](O)(Cc2ccncn2)[C@@H]2CC[C@H]2CN2C[C@@]3(CCCc4cc(Cl)ccc43)COc3ccc(cc32)C(=O)NS1(=O)=O [Example 100152, (1S,3′R,6′R,7′S,8′E,11′S,12′R)-6-chloro-7′-hydroxy-11′,12′-dimethyl-7′-(4-pyrimidinylmethyl)-3,4-dihydro-2H,15′H-spiro[naphthalene-1,22′-[20]oxa[13]thia[1,14]diazatetracyclo [14.7.2.0~3,6~.0~19,24~]pentacosa[8,16,18,24]tetraen]-15′-one 13′,13′-dioxide]
IC50 [1]: 0.449 nM
IC50 [2, 3]: 377 nM

C[C@@H]1[C@@H](C)CCC[C@@](O)(CC(=O)N2CCOC2=O)[C@@H]2CC[C@H]2CN2C[C@@]3(CCCc4cc(Cl)ccc43)COc3ccc(cc32)C(=O)NS1(=O)=O [Example 100153, (1S,3′R,6′R,7′R,11′S,12′R)-6-chloro-7′-hydroxy-11′,12′-dimethyl-7′-(2-oxo-2-(2-oxo-1,3-oxazolidin-3-yl)ethyl)-3,4-dihydro-2H,15′H-spiro[naphthalene-1,22′-[20]oxa[13]thia[1,14]diazatetracyclo [14.7.2.0~3,6~.0~19,24~]pentacosa[16,18,24]trien]-15′-one 13′,13′-dioxide]
IC50 [1]: 0.738 nM
IC50 [2, 3]: 4660 nM

COCCN(C)C1=NO[C@@]2(CCC[C@H](C)[C@@H](C)S(=O)(=O)NC(=O)c3ccc4c(c3)N(C[C@@H]3CC[C@H]32)C[C@@]2(CCCc3cc(Cl)ccc32)CO4)C1 [Example 100155, (1S,3′R,6′R,7′S,11′S,12′R)-6-chloro-3″- ((2-methoxyethyl)(methyl)amino)-11′,12′-dimethyl-3,4-dihydro-2H,4″H,15′H-dispiro[naphthalene-1,22′-[20]oxa[13]thia[1,14]diazatetracyclo [14.7.2.0~3,6~.0~19,24~]pentacosa[16,18,24]triene-7′,5″-[1,2]oxazol]-15′-one 13′,13′-dioxide]
IC50 [1]: 0.225 nM
IC50 [2, 4]: 332 nM

C[C@@H]1[C@@H](C)C/C=C/[C@](O)(CCCO)[C@@H]2CC[C@H]2CN2C[C@@]3(CCCc4cc(Cl)ccc43)COc3ccc(cc32)C(=O)NS1(=O)=O [Example 100156, (1S,3′R,6′R,7′R,8′E,11′S,12′R)-6-chloro-7′-hydroxy-7′-(3-hydroxypropyl)-11′,12′-dimethyl-3,4-dihydro-2H,15′H-spiro[naphthalene-1,22′-[20]oxa[13]thia[1,14]diazatetracyclo [14.7.2.0~3,6~.0~19,24~]pentacosa[8,16,18,24]tetraen]-15′-one 13′,13′-dioxide]
IC50 [1]: 0.41 nM
IC50 [2, 4]: 568 nM

C=CCC[C@@]1(O)/C=C/C[C@H](C)[C@@H](C)S(=O)(=O)NC(=O)c2ccc3c(c2)N(C[C@@H]2CC[C@H]21)C[C@@]1(CCCc2cc(Cl)ccc21)CO3 [Example 100157, (1S,3′R,6′R,7′R,8′E,11′S,12′R)-7′-(3-buten-1-yl)-6-chloro-7′-hydroxy-11′,12′-dimethyl-3,4-dihydro-2H,15′H-spiro[naphthalene-1,22′-[20]oxa[13]thia[1,14]diazatetracyclo [14.7.2.0~3,6~.0~19,24~]pentacosa[8,16,18,24]tetraen]-15′-one 13′,13′-dioxide]
IC50 [1]: 4.81 nM
IC50 [2, 3]: 3210 nM

C=CCC[C@@]1(O)/C=C/C[C@H](C)[C@@H](C)S(=O)(=O)NC(=O)c2ccc3c(c2)N(C[C@@H]2CC[C@H]21)C[C@@]1(CCCc2cc(Cl)ccc21)CO3 [Example 100158, (1S,3′R,6′R,7′R,8′E,11′S,12′R)-7′-(3-buten-1-yl)-6-chloro-7′-hydroxy-11′,12′-dimethyl-3,4-dihydro-2H,15′H-spiro[naphthalene-1,22′-[20]oxa[13]thia[1,14]diazatetracyclo [14.7.2.0~3,6~.0~19,24~]pentacosa[8,16,18,24]tetraen]-15′-one 13′,13′-dioxide]
IC50 [1]: 0.298 nM
IC50 [2, 3]: 260 nM

COCCC[C@]1(O)/C=C/C[C@H](C)[C@@H](C)S(=O)(=O)NC(=O)c2ccc3c(c2)N(C[C@@H]2CC[C@H]21)C[C@@]1(CCCc2cc(Cl)ccc21)CO3 [Example 100160, (1S,3′R,6′R,7′S,8′E,11′S,12′R)-6-chloro-7′-hydroxy-7′-(3-methoxypropyl)-11′,12′-dimethyl-3,4-dihydro-2H,15′H-spiro[naphthalene-1,22′-[20]oxa[13]thia[1,14]diazatetracyclo [14.7.2.0~3,6~.0~19,24~]pentacosa[8,16,18,24]tetraen]-15′-one 13′,13′-dioxide]
IC50 [1]: 0.169 nM
IC50 [2, 4]: 78 nM

C[C@@H]1[C@@H](C)CCC[C@@](O)(Cc2nccn2C)[C@@H]2CC[C@H]2CN2C[C@@]3(CCCc4cc(Cl)ccc43)COc3ccc(cc32)C(=O)NS1(=O)=O [Example 100162, (1S,3′R,6′R,7′R,11′S,12′R)-6-chloro-7′-hydroxy-11′,12′-dimethyl-7′-((1-methyl-1H-imidazol-2-yl)methyl)-3,4-dihydro-2H,15′H-spiro[naphthalene-1,22′-[20]oxa[13]thia[1,14]diazatetracyclo [14.7.2.0~3,6~.0~19,24~]pentacosa[16,18,24]trien]-15′-one 13′,13′-dioxide]
IC50 [1]: 3.47 nM
IC50 [2, 3]: 2870 nM

C[C@@H]1[C@@H](C)CCC[C@@](O)(Cc2nccn2C)[C@@H]2CC[C@H]2CN2C[C@@]3(CCCc4cc(Cl)ccc43)COc3ccc(cc32)C(=O)NS1(=O)=O [Example 100163, (1S,3′R,6′R,7′R,11′S,12′R)-6-chloro-7′-hydroxy-11′,12′-dimethyl-7′-((1-methyl-1H-imidazol-2-yl)methyl)-3,4-dihydro-2H,15′H-spiro[naphthalene-1,22′-[20]oxa[13]thia[1,14]diazatetracyclo [14.7.2.0~3,6~.0~19,24~]pentacosa[16,18,24]trien]-15′-one 13′,13′-dioxide]
IC50 [1]: 2.79 nM
IC50 [2, 3]: 1000 nM

COCCN(C)S(=O)(=O)C[C@]1(O)CCC[C@H](C)[C@@H](C)S(=O)(=O)NC(=O)c2ccc3c(c2)N(C[C@@H]2CC[C@H]21)C[C@@]1(CCCc2cc(Cl)ccc21)CO3 [Example 100165, 1-((1S,3′R,6′R,7′S,11′S,12′R)-6-chloro-7′-hydroxy-11′,12′-dimethyl-13′,13′-dioxido-15′-oxo-3,4-dihydro-2H-spiro[naphthalene-1,22′-[20]oxa[13]thia[1,14]diazatetracyclo [14.7.2.0~3,6~.0~19,24~]pentacosa[16,18,24]trien]-7′-yl)-N-(2-methoxyethyl)-N-methylmethanesulfonamide]
IC50 [1]: 0.455 nM
IC50 [2, 4]: 579 nM

COCCN(C)S(=O)(=O)C[C@]1(O)CCC[C@H](C)[C@@H](C)S(=O)(=O)NC(=O)c2ccc3c(c2)N(C[C@@H]2CC[C@H]21)C[C@@]1(CCCc2cc(Cl)ccc21)CO3 [Example 100166, 1-((1S,3′R,6′R,7′S,11′S,12′R)-6-chloro-7′-hydroxy-11′,12′-dimethyl-13′,13′-dioxido-15′-oxo-3,4-dihydro-2H-spiro[naphthalene-1,22′-[20]oxa[13]thia[1,14]diazatetracyclo [14.7.2.0~3,6~.0~19,24~]pentacosa[16,18,24]trien]-7′-yl)-N-(2-methoxyethyl)-N-methylmethanesulfonamide]
IC50 [1]: 1.77 nM
IC50 [2, 3]: 945 nM

C[C@@H]1[C@@H](C)CCC[C@@](O)(CC(=O)N2CCN(C)CC2)[C@@H]2CC[C@H]2CN2C[C@@]3(CCCc4cc(Cl)ccc43)COc3ccc(cc32)C(=O)NS1(=O)=O [Example 100167, (1S,3′R,6′R,7′R,11′S,12′R)-6-chloro-7′-hydroxy-11′,12′-dimethyl-7′-(2-(4-methyl-1-piperazinyl)-2-oxoethyl)-3,4-dihydro-2H,15′H-spiro[naphthalene-1,22′-[20]oxa[13]thia[1,14]diazatetracyclo [14.7.2.0~3,6~.0~19,24~]pentacosa[16,18,24]trien]-15′-one 13′,13′-dioxide]
IC50 [1]: 0.377 nM
IC50 [2, 4]: 339 nM

C[C@@H]1[C@@H](C)CCC[C@@](O)(CS(=O)(=O)N(C)C(C)(C)C)[C@@H]2CC[C@H]2CN2C[C@@]3(CCCc4cc(Cl)ccc43)COc3ccc(cc32)C(=O)NS1(=O)=O [Example 100169, 1-((1S,3′R,6′R,7′S,11′S,12′R)-6-chloro-7′-hydroxy-11′,12′-dimethyl-13′,13′-dioxido-15′-oxo-3,4-dihydro-2H-spiro[naphthalene-1,22′-[20]oxa[13]thia[1,14]diazatetracyclo [14.7.2.0~3,6~.0~19,24~]pentacosa[16,18,24]trien]-7′-yl)-N-methyl-N-(2-methyl-2-propanyl)methanesulfonamide]
IC50 [1]: 4.83 nM
IC50 [2, 3]: 2270 nM

C[C@@H]1[C@@H](C)CCC[C@@](O)(CS(=O)(=O)N(C)C(C)(C)C)[C@@H]2CC[C@H]2CN2C[C@@]3(CCCc4cc(Cl)ccc43)COc3ccc(cc32)C(=O)NS1(=O)=O [Example 100170, 1-((1S,3′R,6′R,7′S,11′S,12′R)-6-chloro-7′-hydroxy-11′,12′-dimethyl-13′,13′-dioxido-15′-oxo-3,4-dihydro-2H-spiro[naphthalene-1,22′-[20]oxa[13]thia[1,14]diazatetracyclo [14.7.2.0~3,6~.0~19,24~]pentacosa[16,18,24]trien]-7′-yl)-N-methyl-N-(2-methyl-2-propanyl)methanesulfonamide]
IC50 [1]: 12.1 nM
IC50 [2, 3]: 7820 nM

C[C@@H]1[C@@H](C)C/C=C/[C@@](O)(CC=O)[C@@H]2CC[C@H]2CN2C[C@@]3(CCCc4cc(Cl)ccc43)COc3ccc(cc32)C(=O)NS1(=O)=O [Example 100171, ((1S,3′R,6′R,7′S,8′E,11′S,12′R)-6-chloro-7′-hydroxy-11′,12′-dimethyl-13′,13′-dioxido-15′-oxo-3,4-dihydro-2H-spiro[naphthalene-1,22′-[20]oxa[13]thia[1,14]diazatetracyclo [14.7.2.0~3,6~.0~19,24~]pentacosa[8,16,18,24]tetraen]-7′-yl)acetaldehyde]
IC50 [1]: 0.578 nM
IC50 [2, 4]: 868 nM
